The record followed here is patent US10669235B2, “Indole derivatives and their use as protein kinase inhibitors” (RESPIVERT LIMITED, priority 2016, dated 2020).

pIC50, pKi: −log10 of the molar value. Where a name gives a salt, the structure may show the parent alone. Read-outs that look alike come from different tables or passages of the source. Bounds are passed on as bounds.

Data set [1] addresses T1, PDGFRβ (Homo sapiens (Human), UniProt P09619). As to the kind of experiment: PDGFRβ enzyme inhibition (ADP-Glo assay). The class given is biochemical. (ADP-Glo turns the ADP formed in a reaction into a luminescent signal.)
Data set [2] has as its target T1, PDGFRβ. As to the kind of experiment: PDGF-BB induced phosphorylation of PDGFRβ in fibroblasts (MRC5, HTRF). It counts as cell-based. Particulars: MRC5 cells, PDGFBB stimulation; read-out: PDGFBB-induced PDGFRβ phosphorylation in MRC5 cells (IC50). (TR-FRET usually uses a lanthanide donor and a delayed reading to cut background.)
For a further data set, the system named is MRC5 cells. Put plainly: Cell viability assay in MRC5 cells (MTT).
A further data set can be described thus: PAMPA permeability assay. Particulars: pH 7, PAMPA. It counts as in vitro ADME. (In general: The PAMPA barrier holds no transporters, so it reflects passive diffusion.)
Data set [3] can be described thus: Pharmacokinetic measurements in rats (i.v., i.t., oral). As to conditions: rat; for concentration at 0.1 h: read-out: lung concentration (nM) at time 0.1 h; for concentration at 1.5 h: read-out: lung concentration (nM) at time 1.5 h; for concentration at 6 h: read-out: lung concentration (nM) at time 6 h; for concentration at 24 h: read-out: lung concentration (nM) at time 24 h. It counts as in vivo.

Setting [4] is: mean, n = 2 (nintedanib n = 34).
Where [5] appears, read: i.t. dose 0.1 (nintedanib 0.42), 0.1 h.
Where [6] appears, read: i.t. dose 0.1 (nintedanib 0.42), 1.5 h.
Setting [7] is: i.t. dose 0.1 (nintedanib 0.42), 6 h.
Setting [8] is: i.t. dose 0.1 (nintedanib 0.42), 24 h.
Where [9] appears, read: i.v. dose 0.1 (nintedanib 0.42), 0.1 h.
The mark [10] stands for this setting: i.v. dose 0.1 (nintedanib 0.42), 1.5 h.
Where [11] appears, read: i.v. dose 0.1 (nintedanib 0.42), 6 h.
Setting [12] is: i.v. dose 0.1 (nintedanib 0.42), 24 h.

Usually pKi stands for the negative decadic logarithm of the Ki, by convention in mol/L. Lower therefore signals a large Ki. By pIC50 is commonly meant −log10 of the IC50, conventionally taken in molar units. Broadly, the Papp is a coefficient for how fast a substance crosses the barrier.

T1 sequence (P09619 33-1106): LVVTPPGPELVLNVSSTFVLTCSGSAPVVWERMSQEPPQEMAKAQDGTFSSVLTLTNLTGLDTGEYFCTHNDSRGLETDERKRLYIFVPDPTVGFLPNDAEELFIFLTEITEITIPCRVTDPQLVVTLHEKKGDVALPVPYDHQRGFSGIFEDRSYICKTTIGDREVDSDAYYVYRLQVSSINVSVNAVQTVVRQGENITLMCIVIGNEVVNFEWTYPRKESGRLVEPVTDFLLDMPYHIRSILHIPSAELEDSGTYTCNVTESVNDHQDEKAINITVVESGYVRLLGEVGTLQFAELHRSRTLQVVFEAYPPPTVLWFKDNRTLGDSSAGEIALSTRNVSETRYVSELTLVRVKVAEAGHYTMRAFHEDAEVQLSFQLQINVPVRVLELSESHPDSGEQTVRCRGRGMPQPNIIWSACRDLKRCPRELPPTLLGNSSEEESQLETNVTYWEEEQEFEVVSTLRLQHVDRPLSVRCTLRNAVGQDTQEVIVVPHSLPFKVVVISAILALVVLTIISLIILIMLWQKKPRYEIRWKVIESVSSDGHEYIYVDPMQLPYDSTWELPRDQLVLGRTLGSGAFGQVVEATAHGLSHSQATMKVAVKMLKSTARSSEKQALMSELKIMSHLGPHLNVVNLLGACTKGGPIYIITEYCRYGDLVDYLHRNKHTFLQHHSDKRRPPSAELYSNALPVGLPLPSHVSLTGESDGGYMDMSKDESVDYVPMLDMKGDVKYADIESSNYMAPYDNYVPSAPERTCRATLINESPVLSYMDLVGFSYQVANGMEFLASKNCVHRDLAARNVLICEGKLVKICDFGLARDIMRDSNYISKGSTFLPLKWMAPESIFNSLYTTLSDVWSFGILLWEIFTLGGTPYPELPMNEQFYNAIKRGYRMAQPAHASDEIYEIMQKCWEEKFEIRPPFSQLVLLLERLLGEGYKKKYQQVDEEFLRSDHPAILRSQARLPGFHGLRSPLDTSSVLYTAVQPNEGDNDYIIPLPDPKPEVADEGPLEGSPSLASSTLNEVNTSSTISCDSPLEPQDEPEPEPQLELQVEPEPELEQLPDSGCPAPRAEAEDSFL

Regarding `COC(=O)c1cc2c(cc1C)/C(=C(/Nc1ccc(C(=O)NCCN3CCNC(=O)C3)c(F)c1)c1ccccc1)C(=O)N2` [Example 55, (Z)-Methyl 3-(((3-fluoro-4-((2-(3-oxopiperazin-1-yl)ethyl)carbamoyl)phenyl)amino)(phenyl)methylene)-5-methyl-2-oxoindoline-6-carboxylate], at PDGFRβ [1] (setting [4]), the negative logarithm of the Ki (pKi) was 7.60. Also, on PDGFRβ [2], the pIC50 was 8.04. Besides, in the data set with MRC5 cells, the “Cell viability at 100 nM (%)” value amounted to 79.4%, the “Cell viability at 300 nM (%)” value is 101.5% and the “Cell viability at 1000 nM (%)” value is 101.7%.
For `COC(=O)c1cc2c(cc1C)/C(=C(/Nc1ccc(C(=O)NCCN3CCC(F)(F)CC3)cc1)c1ccccc1)C(=O)N2` [Example 23, (Z)-Methyl 3-(((4-((2-(4,4-difluoropiperidin-1-yl)ethyl)carbamoyl)phenyl)amino)(phenyl)methylene)-5-methyl-2-oxoindoline-6-carboxylate], in that order: 7.07, 7.65, 90.7%, 100.5% and 62.1%.
For `COC(=O)c1cc2c(cc1C)/C(=C(/Nc1ccc(C(=O)NCCN3CCN(C(C)=O)CC3)cc1)c1ccccc1)C(=O)N2` [Example 24, (Z)-Methyl 3-(((4-((2-(4-acetylpiperazin-1-yl)ethyl)carbamoyl)phenyl)amino)(phenyl)methylene)-5-methyl-2-oxoindoline-6-carboxylate], in that order: 7.90, 7.91, 125.2%, 74.4% and 45.9%.
Compound `COC(=O)c1cc2c(cc1C)/C(=C(/Nc1ccc(C(=O)N3CCC(C(N)=O)(N4CCCCC4)CC3)cc1)c1ccccc1)C(=O)N2` [Example 47, (Z)-Methyl 3-(((4-(4′-carbamoyl-[1,4′-bipiperidine]-1′-carbonyl)phenyl)amino)(phenyl)methylene)-5-methyl-2-oxoindoline-6-carboxylate] gave a pKi at PDGFRβ [1] (setting [4]) of 7.00. The negative-log IC50 (pIC50) at PDGFRβ [2] is 8.44. In addition, in the data set on MRC5 cells, the “Cell viability at 100 nM (%)” value is recorded as 143.1%, the “Cell viability at 300 nM (%)” value is reported as 123% and the “Cell viability at 1000 nM (%)” value is 58.5%.
For `COC(=O)c1cc2c(cc1C)/C(=C(/Nc1ccc(C(=O)N3CCCN(CCO)CC3)cc1)c1ccccc1)C(=O)N2` [Example 46, (Z)-Methyl-3-(((4-(4-(2-hydroxyethyl)-1,4-diazepane-1-carbonyl)phenyl)amino)(phenyl)methylene)-5-methyl-2-oxoindoline-6-carboxylate], in that order: 8.18, 8.60, 87%, 80.2% and 18.2%.
For `CNC(=O)CN(C)CCNC(=O)c1ccc(N/C(=C2\C(=O)Nc3cc(C(=O)OC)c(C)cc32)c2ccccc2)cc1` [Example 54, (Z)-Methyl 5-methyl-3-(((4-((2-(methyl(2-(methylamino)-2-oxoethyl)amino)ethyl)carbamoyl)phenyl)amino)(phenyl)methylene)-2-oxoindoline-6-carboxylate], in that order: 7.80, 8.30, 110.2%, 105.5% and 92.4%.
On to `COC(=O)c1cc2c(cc1C)/C(=C(/Nc1ccc(C(=O)N(C)[C@H]3CN(C)C[C@@H]3O)cc1)c1ccccc1)C(=O)N2` [Example 48, (Z)-Methyl 3-(((4-(((3S,4S)-4-hydroxy-1-methylpyrrolidin-3-yl)(methyl)carbamoyl)phenyl)amino)(phenyl)methylene)-5-methyl-2-oxoindoline-6-carboxylate, 0.4 formate], for which, at PDGFRβ [1] (setting [4]), the pKi is 8.02. The pIC50 on PDGFRβ [2] is 8.64. Also, in the data set on MRC5 cells, the “Cell viability at 100 nM (%)” value was 84.4%, the “Cell viability at 300 nM (%)” value is given as 74.4% and the “Cell viability at 1000 nM (%)” value turned out to be 14.1%.
The compound `COC(=O)c1cc2c(cc1C)/C(=C(/Nc1ccc(C(=O)NCCN3CCC(F)CC3)cc1)c1ccccc1)C(=O)N2` [Example 28, (Z)-Methyl 3-(((4-((2-(4-fluoropiperidin-1-yl)ethyl)carbamoyl)phenyl)amino)(phenyl)methylene)-5-methyl-2-oxoindoline-6-carboxylate, formate] gave a pKi on PDGFRβ [1] of 7.70. The negative-log IC50 (pIC50) at PDGFRβ [2] was 7.29. Besides, in the data set with MRC5 cells, the “Cell viability at 100 nM (%)” value is reported as 149.4%, the “Cell viability at 300 nM (%)” value is given as 97.6% and the “Cell viability at 1000 nM (%)” value was determined as 83.6%.
For `COC(=O)c1cc2c(cc1C)/C(=C(/Nc1ccc(C(=O)NCCN3CCC(CO)CC3)cc1)c1ccccc1)C(=O)N2` [Example 42, (Z)-Methyl 3-(((4-((2-(4-(hydroxymethyl)piperidin-1-yl)ethyl)carbamoyl)phenyl)amino)(phenyl)methylene)-5-methyl-2-oxoindoline-6-carboxylate, 0.2 formate], the negative logarithm of the Ki (pKi) on PDGFRβ [1] (setting [4]) was 7.84. For the same compound, the negative logarithm of the IC50 (pIC50) at PDGFRβ [2] is 7.83. Moreover, in the data set with MRC5 cells, the “Cell viability at 100 nM (%)” value is recorded as 82.5%, the “Cell viability at 300 nM (%)” value was found to be 83.4% and the “Cell viability at 1000 nM (%)” value is listed as 60.7%.
Taken in the same sequence, the figures for `COC(=O)c1cc2c(cc1C)/C(=C(/Nc1ccc(C(=O)N(C)C3CCN(CCO)CC3)cc1)c1ccccc1)C(=O)N2` [Example 41, (Z)-Methyl 3-(((4-((1-(2-hydroxyethyl)piperidin-4-yl)(methyl)carbamoyl)phenyl)amino)(phenyl)methylene)-5-methyl-2-oxoindoline-6-carboxylate, 0.2 formate] were 7.99, 8.13, 68.5%, 56.8% and 6.2%.
Consider `COC(=O)c1cc2c(cc1C)/C(=C(/Nc1ccc(C(=O)NCCN3CCC(N(C)C)CC3)cc1)c1ccccc1)C(=O)N2` [Example 6, (Z)-Methyl 3-(((4-((2-(4-(dimethylamino)piperidin-1-yl)ethyl)carbamoyl)phenyl)amino) (phenyl)methylene)-5-methyl-2-oxoindoline-6-carboxylate, formate], for which the pIC50 on PDGFRβ [2] was 7.88. In addition, in “PAMPA permeability assay”, the recovery at 5 hr, 10 μM was found to be 56.5%. Further, the Papp at 5 hr, 10 μM in the data set “PAMPA permeability assay” (pH 7, 10 μM, 5 hr) is 0.012 ×10⁻⁶ cm/s. In data set [3] (0.1 h), the “Lung conc i.t./i.v. Ratio at time 0.1 h” value was 9.8. For the same compound, in data set [3] (1.5 h), the “Lung conc i.t./i.v. Ratio at time 1.5 h” value came out at 8.0. Moreover, in data set [3] (6 h), the “Lung conc i.t./i.v. Ratio at time 6 h” value turned out to be 8.3. The “Lung conc i.t./i.v. Ratio at time 24 h” value in data set [3] (24 h) is 7.7. Also, in data set [3] (setting [5]), the “BAL % administered dose at time 0.1 h” value amounted to 14%, the “lung/plasma conc ratio at time 0.1 h” value is listed as 472 and the concentration at 0.1 h is 9826 nM. In addition, in data set [3] (setting [6]), the “BAL % administered dose at time 1.5 h” value was 0.9%, the “lung/plasma conc ratio at time 1.5 h” value is >4452 and the concentration at 1.5 h is on record as 7568 nM. In addition, in data set [3] (setting [7]), the “BAL % administered dose at time 6 h” value is 1.1%, the “lung/plasma conc ratio at time 6 h” value is >4597 and the concentration at 6 h is listed as 7815 nM. In data set [3] (setting [8]), the “BAL % administered dose at time 24 h” value was found to be 0.9%, the “lung/plasma conc ratio at time 24 h” value is >3787 and the concentration at 24 h is 6438 nM. Moreover, in data set [3] (setting [9]), the “BAL % administered dose at time 0.1 h” value is given as “BQL”, the “lung/plasma ratio at time 0.1 h” value turned out to be 77 and the concentration at 0.1 h is 1002 nM. Moreover, in data set [3] (setting [10]), the “BAL % administered dose at time 1.5 h” value is reported as “BQL”, the “lung/plasma ratio at time 1.5 h” value is >558 and the concentration at 1.5 h is 949 nM. Further, in data set [3] (setting [11]), the “BAL % administered dose at time 6 h” value was “BQL”, the “lung/plasma ratio at time 6 h” value is listed as >552 and the concentration at 6 h amounted to 939 nM. In addition, in data set [3] (setting [12]), the “BAL % administered dose at time 24 h” value is listed as “BQL”, the “lung/plasma ratio at time 24 h” value is >492 and the concentration at 24 h came to 837 nM. In the data set with MRC5 cells, the “Cell viability at 100 nM (%)” value turned out to be 102.3%, the “Cell viability at 300 nM (%)” value stood at 98.9% and the “Cell viability at 1000 nM (%)” value is on record as 91.2%.
The compound `COC(=O)c1cc2c(cc1C)/C(=C(/Nc1cccc(C(=O)N(C)CCN(C)C)c1)c1ccccc1)C(=O)N2` [Example 16, (Z)-Methyl 3-(((3-((2-(dimethylamino)ethyl)(methyl)carbamoyl)phenyl)amino)(phenyl)methylene)-5-methyl-2-oxoindoline-6-carboxylate] had a negative-log Ki (pKi) at PDGFRβ [1] (setting [4]) of 7.89. In the data set on MRC5 cells, the “Cell viability at 100 nM (%)” value is given as 103.2%, the “Cell viability at 300 nM (%)” value was determined as 104.3% and the “Cell viability at 1000 nM (%)” value was 70.6%.
